# Results taken from patent US20260248879A1, “METHODS OF USING A GCG/GLP1 CO-AGONIST FOR THERAPY” (ELI LILLY AND COMPANY, priority 2022, published 2026).
# Marks after values point to notes of the source that are not given here.
# Experiments:
# Type in all cases: in vivo, human
# [1] = system: patients with T2DM; assay: Example 1 study: HbA1c
# Text: This study is a Phase 1, single-site, patient- and investigator-blinded, placebo controlled, randomized, non-crossover, multiple-ascending dose study with titration in each cohort in patients with T2DM to investigate the safety, tolerability, PK, and PD of the GLP-1/glucagon co-agonist peptide of SEQ ID NO:1 (Compound 1) administered as multiple SC injections QW for 12 weeks in Cohort 1 and 16 weeks in Cohort 2.
# The first dosing regimen (also referred to as Cohort 1) is 12 weeks in duration and requires dose increments of 1.5 mg starting from 1.5 mg: • 1.5 mg QW Compound 1 for 4 weeks; • 3.0 mg QW Compound 1 for 4 weeks; and • 4.5 mg QW Compound 1 for 4 weeks.
# The second dosing regimen (also referred to as Cohort 2) is 16 weeks in duration and requires dose increments of 2 mg starting from 2 mg: • 2 mg QW Compound 1 for 3 weeks; • 4 mg QW Compound 1 for 3 weeks; • 6 mg QW Compound 1 for 3 weeks; • 8 mg QW Compound 1 for 3 weeks; and • 10 mg QW Compound 1 for 4 weeks.
# In respect of Cohort 1, HbA1c levels are determined at baseline and Days 1, 29, 57 and 78. In respect of Cohort 2, HbA1c is measured at baseline and Days 1, 22, 43, 64, 85 and 106.
# [2] = system: patients with T2DM; assay: Example 1 study: gastric emptying (acetaminophen PK)
# Text: Acetaminophen is a well-established marker for the rate and extent of gastric emptying. It is rapidly absorbed from the duodenum upon release from the stomach. A delay in gastric emptying is reflected in the alterations to the concentration-time profile of acetaminophen, specifically, decreasing its Cmax and increasing time of maximum observed drug concentration (tmax) without altering the extent (total drug amount) absorbed. An oral solution dose of approximately 1 g acetaminophen is considered to be sufficient for bioanalytical detection and is administered as indicated below in respect of Cohorts 1 and 2. […] Concentrations of acetaminophen are assayed using a validated LC/MS method. Bioanalytical samples collected to measure acetaminophen concentrations are retained for a maximum of 2 years following last patient visit for the study.
# In respect of Cohort 1, gastric emptying is assessed at baseline and Days 2 and 79.
# In respect of Cohort 2, gastric emptying is assessed at baseline and Days 2 and 107.
# The PK parameters of acetaminophen were compared between treatment groups to determine the rate and extent of gastric emptying. Prior to dosing with Compound 1, the PK profiles of acetaminophen on Day −1 were similar between the treatment groups. Within treatment groups, the Cmax of acetaminophen decreased from Day −1 during 12 weeks of multiple dosing with Compound 1. The Cmax of acetaminophen was lowest on Day 2 in both treatment groups. However, the change from baseline Cmax of acetaminophen increased at Day 107.
# [3] = system: individuals with obesity; assay: Example 2 study: adverse events
# Text: This study is designed to evaluate the safety, tolerability, PD and PK of dose to higher doses of Compound 1 in individuals with obesity. The Multiple Ascending Dose (MAD) study is a randomized, investigator- and participant-blind, placebo-controlled, multiple-ascending dose, single- or multi-site study conducted in individuals with obesity (i.e., females or males aged 18-70 years, inclusive, a BMI in the range of 27 kg/m^2 to 50 kg/m^2). Participants should have stable body weight for at least 3 months prior to the initiation of the study.
# Dose of Compound 1 is assessed with weekly dosing over 20 weeks in 2 cohorts. Each cohort comprises 12 patients-nine patients are administered Compound 1 and three patients are administered placebo.
# The dose for Cohort 1 is as follows: • 1.5 mg Compound 1 for 2 weeks; • 3.0 mg Compound 1 for 2 weeks; • 6.0 mg Compound 1 for 4 weeks; • 8.0 mg Compound 1 for 4 weeks; • 12.0 mg Compound 1 for 4 weeks; and • 16.0 mg Compound 1 for 4 weeks.
# The dose for Cohort 2 is as follows: • 2.0 mg Compound 1 for 3 weeks; • 4.0 mg Compound 1 for 3 weeks; • 6.0 mg Compound 1 for 3 weeks; • 8.0 mg Compound 1 for 3 weeks; • 10.0 mg Compound 1 for 2 weeks; • 13.0 mg Compound 1 for 2 weeks, and • 16.0 mg Compound 1 for 4 weeks.
# Safety parameters assessed during the study include: AEs (with special interest to GI AEs such as nausea, vomiting, and diarrhea), laboratory parameters, physical examinations/medical assessments, vital signs and ECGs, BW, injection site reactions, hypersensitivity reactions, and glucose monitoring (with special attention to hypoglycemia).
structure (smiles),measurement,setting,value
CC(C)C[C@H](NC(=O)[C@H](CC(C)C)NC(=O)[C@H](Cc1c[nH]c2ccccc12)NC(=O)[C@H](CCC(=O)O)NC(=O)[C@@H](NC(=O)[C@H](Cc1ccccc1)NC(=O)[C@H](CCC(=O)O)NC(=O)[C@H](CCCCNC(=O)COCCOCCNC(=O)COCCOCCNC(=O)CC[C@H](NC(=O)CCCCCCCCCCCCCCCCCCC(=O)O)C(=O)O)NC(=O)[C@H](C)NC(=O)[C@H](CCCCN)NC(=O)[C@H](CCCCN)NC(=O)[C@H](CCC(=O)O)NC(=O)[C@H](CC(=O)O)NC(=O)[C@H](CC(C)C)NC(=O)[C@H](Cc1ccc(O)cc1)NC(=O)[C@H](CCCCN)NC(=O)[C@H](CO)NC(=O)[C@H](Cc1ccc(O)cc1)NC(=O)[C@H](CC(=O)O)NC(=O)[C@H](CO)NC(=O)[C@@H](NC(=O)[C@H](Cc1ccccc1)NC(=O)[C@@H](NC(=O)CNC(=O)[C@H](CCC(N)=O)NC(=O)C(C)(C)NC(=O)[C@@H](N)Cc1c[nH]cn1)[C@@H](C)O)[C@@H](C)O)C(C)C)C(=O)N[C@@H](CCC(=O)O)C(=O)NCC(=O)NCC(=O)N1CCC[C@H]1C(=O)N[C@@H](CO)C(=O)N[C@@H](CO)C(=O)NCC(N)=O [Compound 1],Change from Baseline in HbA1c,"[1]; Cohort 1 (1.5-4.5 mg QW), Day 29, baseline 8.52",−0.70* %
same,Change from Baseline in HbA1c,"[1]; Cohort 1, Day 57, baseline 8.52",−1.45* %
same,Change from Baseline in HbA1c,"[1]; Cohort 1, Day 78, baseline 8.52",−1.80* %
same,Change from Baseline in HbA1c,"[1]; Cohort 1, Day 106 (28 days after last dose), baseline 8.52",−2.03* %
same,HbA1c decrease from baseline compared to placebo,"[1]; Cohort 1 and Cohort 2, Day 57 until Day 134",Statistically significant decreases
same,Change from Baseline in HbA1c,"[1]; Cohort 2 (2-10 mg QW), Day 43, baseline 8.08",−0.83* %
same,Change from Baseline in HbA1c,"[1]; Cohort 2, Day 64, baseline 8.08",−1.35* %
same,Change from Baseline in HbA1c,"[1]; Cohort 2, Day 85, baseline 8.08",−1.50* %
same,Change from Baseline in HbA1c,"[1]; Cohort 2, Day 106, baseline 8.08",−1.67* %
same,"acetaminophen Cmax, Change From Baseline (Est % change)","[2]; Cohort 1, Day 2",(0.83) %
same,"acetaminophen tmax, Change From Baseline (Est % change)","[2]; Cohort 1, Day 2",(1.06) %
same,acetaminophen tmax,"[2]; Cohort 1, Day 2, Day −1 2.671",1.963 h
same,"acetaminophen Cmax, Change From Baseline (Est % change)","[2]; Cohort 1, Day 79",(0.9) %
same,acetaminophen tmax,"[2]; Cohort 1, Day 79",1.478 h
same,"acetaminophen tmax, Change From Baseline (Est % change)","[2]; Cohort 1, Day 79",(0.8) %
same,"acetaminophen Cmax, Change From Baseline (Est % change)","[2]; Cohort 2, Day 2",(0.79) %
same,"acetaminophen tmax, Change From Baseline (Est % change)","[2]; Cohort 2, Day 2",(0.89) %
same,"acetaminophen tmax, Change From Baseline, Mean","[2]; Cohort 2, Day 2",0.187 h
same,acetaminophen tmax,"[2]; Cohort 2, Day 2, Day −1 1.214",1.423 h
same,"acetaminophen Cmax, Change From Baseline (Est % change)","[2]; Cohort 2, Day 107",(1.18) %
same,acetaminophen tmax,"[2]; Cohort 2, Day 107",0.909 h
same,"acetaminophen tmax, Change From Baseline (Est % change)","[2]; Cohort 2, Day 107",(0.89) %
same,"acetaminophen tmax, Change From Baseline, Mean","[2]; Cohort 2, Day 107",0.75 h
same,deaths,[3]; Example 2 study,No deaths occurred
same,most common treatment-emergent adverse events,[3]; in vivo,"gastrointestinal in nature (nausea, vomiting, diarrhea)"
same,serious adverse events,[3]; in vivo,No serious adverse events were observed
